Data: paper PMC10272112 (Nature Communications, 2023)
Read-outs that look alike come from different tables or passages of the source.

Tests used:
HDAC2 = HDAC2 (Homo sapiens, UniProt Q92769); experiment: Chemoproteomic competition pulldown assay; type: binding; set-up: endogenous in cells; host or cells: SW620, MV4-11, A549 lysates
Procedure: (§1) To identify proteins directly bound by lipoic acid, we employed a chemoproteomic competition assay. Briefly, (R/S)-LA was immobilized on sepharose beads via an amidation reaction to form an affinity matrix (abbreviated as iL; Fig. 1a). This affinity matrix can be incubated with cell lysate to pull down potential LA or LM target proteins and identify these targets via bottom-up proteomics. In a competition assay, free LA or LM were incubated with lysate at different concentrations before pulling down and quantifying target proteins. […] (Fig. 1b, see “Methods” for details). […] The lysate buffer used in this assay contains 1 mM DTT to mimic the intracellular reductive milieu and to reduce lipoic acid and LM. […] Additional competition assays performed in lung adenocarcinoma cell A549 lysate also identified HDAC1, HDAC2, and HDAC6 as targets (Supplementary Fig. 1b). Amongst the three cell lines tested, HDACs were the only confidently identified targets across the 1500–3000 proteins quantified in these assays. […] We validated the results by analogous pulldown competition assays using two other affinity matrices prepared via the immobilization of either the HDAC inhibitor Quisinostat (iQ) and an analog of the class IIa HDAC inhibitor Bürli’s 31[14] (iC)[12]. We have previously shown that these affinity matrices specifically bind to the active sites of HDACs and have used them for HDACi selectivity profiling. Indeed, binding of (R/S)-LA and (R/S)-LM to HDAC1, HDAC2, HDAC3, HDAC6, and, to a lesser extent, HDAC8 was confirmed in these assays (Supplementary Fig. 1c, d). No binding to class IIa HDACs or the recently discovered common HDAC inhibitor off-target MBLAC2 was observed (Supplementary Fig. 1e)[12]. […] This observation might reflect electrostatic repulsion between the HDAC10 active site gate-keeper glutamic acid residues[15],[16] and the terminal carboxylic acid of LA.
(§2) To assess the degree of protein depletion from lysates by the affinity matrix, a second pulldown (PDPD) with fresh beads was performed using the unbound protein fraction from the vehicle control flow through. The beads were washed (1 × 1 mL of lysis buffer without inhibitors and only 0.4% Igepal, 2 × 2 mL of lysis buffer without inhibitors and only 0.2% Igepal), and captured proteins were denatured with 8 M urea buffer, alkylated with 55 mM chloroacetamide and digested with Trypsin according to standard procedures. The resulting peptides were desalted on a C18 filter plate (Sep-Pak® tC18 µElution Plate, Waters), vacuum dried, and stored at −20 °C until LC–MSMS measurement.
(§3) For the competition assays, relative binding was calculated based on the protein intensity ratio to the DMSO control for every single inhibitor concentration. EC50 values were derived from a four-parameter log-logistic regression with variable slope (constrain: bottom > 0). The obtained EC50 values were multiplied with a protein-dependent correction factor (cf), resulting in the apparent Kd value (Kd^app). The correction factor is determined by calculating the ratio of the protein intensity of two consecutive pulldowns of the vehicle control sample[13]. Targets of the inhibitors were annotated manually according to published procedures[12],[46],[47]. […] Additionally, the number of unique peptides and MSMS counts per condition were taken into account. Positive target binding across several independent experiments performed with different cell lysates further substantiated our confidence for a true positive drug-target binding event.

HDAC8 = target: T1, HDAC8 (Homo sapiens, UniProt Q9BY41); experiment: Chemoproteomic competition pulldown assay; type: binding; set-up: endogenous in cells; host or cells: SW620 lysate; details: iQ; for Kd: SW620, read-out: pKdapp (converted); for relative binding vs DMSO: SW620 lysate
T1 sequence (Q9BY41 1-377): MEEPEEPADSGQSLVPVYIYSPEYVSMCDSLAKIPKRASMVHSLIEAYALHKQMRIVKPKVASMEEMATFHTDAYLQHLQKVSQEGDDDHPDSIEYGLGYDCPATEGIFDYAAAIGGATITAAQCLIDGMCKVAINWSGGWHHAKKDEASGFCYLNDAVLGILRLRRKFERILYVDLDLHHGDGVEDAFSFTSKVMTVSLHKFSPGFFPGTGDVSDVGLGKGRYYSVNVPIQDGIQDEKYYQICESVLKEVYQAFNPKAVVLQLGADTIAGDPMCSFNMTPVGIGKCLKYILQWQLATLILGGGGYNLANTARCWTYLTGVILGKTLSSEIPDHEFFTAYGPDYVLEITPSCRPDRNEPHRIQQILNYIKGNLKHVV
Procedure: as §1, §2, §3

[1] = iL, SW620, read-out: pKdapp (converted)
[2] = iQ, SW620, read-out: pKdapp (converted)
[3] = iQ, SW620 lysate, log10 M -3.52288
[4] = iQ, SW620 lysate, log10 M -4.52288
[5] = iQ, SW620 lysate, log10 M -5.52288
[6] = iQ, SW620 lysate, log10 M -6.52288

Chain of HDAC2 (Q92769 whole entry): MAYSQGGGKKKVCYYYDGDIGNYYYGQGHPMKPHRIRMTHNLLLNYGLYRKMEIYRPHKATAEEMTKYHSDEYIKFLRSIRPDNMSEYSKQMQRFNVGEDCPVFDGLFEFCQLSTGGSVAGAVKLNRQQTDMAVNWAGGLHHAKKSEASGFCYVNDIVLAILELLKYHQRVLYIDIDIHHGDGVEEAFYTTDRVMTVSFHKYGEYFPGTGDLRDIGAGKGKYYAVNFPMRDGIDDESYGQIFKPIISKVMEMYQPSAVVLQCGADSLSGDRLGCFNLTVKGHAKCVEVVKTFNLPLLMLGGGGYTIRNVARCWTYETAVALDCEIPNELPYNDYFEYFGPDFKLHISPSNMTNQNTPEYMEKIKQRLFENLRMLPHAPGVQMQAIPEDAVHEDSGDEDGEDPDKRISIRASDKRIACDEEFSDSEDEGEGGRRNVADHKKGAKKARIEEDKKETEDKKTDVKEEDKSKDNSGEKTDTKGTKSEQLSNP

Row | SMILES | Kd (HDAC2; [1]) [µM] | Kd (HDAC2; [2]) [µM] | relative binding vs DMSO (HDAC2; [3]) | relative binding vs DMSO (HDAC2; iQ, SW620 lysate, log10 M -4) | relative binding vs DMSO (HDAC2; [4]) | relative binding vs DMSO (HDAC2; iQ, SW620 lysate, log10 M -5) | relative binding vs DMSO (HDAC2; [5]) | relative binding vs DMSO (HDAC2; iQ, SW620 lysate, log10 M -6) | relative binding vs DMSO (HDAC2; [6]) | relative binding vs DMSO (HDAC2; iQ, SW620 lysate, log10 M -7) | Kd (HDAC8) [µM] | relative binding vs DMSO (HDAC8; log10 M -3.52288) | relative binding vs DMSO (HDAC8; log10 M -4) | relative binding vs DMSO (HDAC8; log10 M -4.52288) | relative binding vs DMSO (HDAC8; log10 M -5) | relative binding vs DMSO (HDAC8; log10 M -5.52288) | relative binding vs DMSO (HDAC8; log10 M -6) | relative binding vs DMSO (HDAC8; log10 M -6.52288) | relative binding vs DMSO (HDAC8; log10 M -7) | further results
1 | O=C(O)CCCCC1CCSS1 (racemic) [(R/S)-LA, (R/S)-lipoic acid] | 6.31 | 31.6 | 0.2247 | 0.2743 | 0.6023 | 0.7491 | 0.82 | 0.8431 | 0.9314 | 0.8052 | 39.8 | 0.618 | 0.6642 | 1.003 | 1.048 | 1.024 | 1.06 | 0.9713 | 1.01 | Kd (HDAC2; iL, A549, read-out: pKdapp (converted)): 1 µM; relative binding vs DMSO (HDAC2; iL, A549 lysate, log10 M -4): 0.3867; relative binding vs DMSO (HDAC2; iL, A549 lysate, log10 M -4.52288): 0.2342; relative binding vs DMSO (HDAC2; iL, A549 lysate, log10 M -5): 0.3145; relative binding vs DMSO (HDAC2; iL, A549 lysate, log10 M -5.52288): 0.7222; relative binding vs DMSO (HDAC2; iL, A549 lysate, log10 M -6): 0.7592; relative binding vs DMSO (HDAC2; iL, A549 lysate, log10 M -6.52288): 1.015; relative binding vs DMSO (HDAC2; iL, A549 lysate, log10 M -7.52288): 1.14; relative binding vs DMSO (HDAC2; iL, A549 lysate, log10 M -8): 1.179; relative binding vs DMSO (HDAC2; iL, A549 lysate, log10 M -8.52288): 1.15; relative binding vs DMSO (HDAC2; iL, SW620 lysate, log10 M -3.52288): 0.08452; relative binding vs DMSO (HDAC2; iL, SW620 lysate, log10 M -4): 0.1723; relative binding vs DMSO (HDAC2; iL, SW620 lysate, log10 M -4.52288): 0.723; relative binding vs DMSO (HDAC2; iL, SW620 lysate, log10 M -5): 1.4202; relative binding vs DMSO (HDAC2; iL, SW620 lysate, log10 M -5.52288): 0.8654; relative binding vs DMSO (HDAC2; iL, SW620 lysate, log10 M -6): 1.086; relative binding vs DMSO (HDAC2; iL, SW620 lysate, log10 M -6.52288): 0.8422; relative binding vs DMSO (HDAC2; iL, SW620 lysate, log10 M -7): 1.138
2 | NC(=O)CCCCC1CCSS1 (racemic) [(R/S)-LM, (R/S)-lipoamide] | 20 | 20 | 0.1341 | 0.2239 | 0.5192 | 0.7829 | 0.822 | 0.953 | 0.8561 | 0.9474 | 15.8 | 0.4707 | 0.4645 | 0.802 | 1.001 | 1.106 | 1.189 | 0.8797 | 0.9776 | relative binding vs DMSO (HDAC2; iL, MV4-11 lysate, log10 M -3.52288): 0.0982; relative binding vs DMSO (HDAC2; iL, MV4-11 lysate, log10 M -4): 0.1933; relative binding vs DMSO (HDAC2; iL, MV4-11 lysate, log10 M -4.52288): 0.3304; relative binding vs DMSO (HDAC2; iL, MV4-11 lysate, log10 M -5): 0.6612; relative binding vs DMSO (HDAC2; iL, MV4-11 lysate, log10 M -5.52288): 0.6399; relative binding vs DMSO (HDAC2; iL, MV4-11 lysate, log10 M -6): 0.7735; relative binding vs DMSO (HDAC2; iL, MV4-11 lysate, log10 M -6.52288): 0.8518; relative binding vs DMSO (HDAC2; iL, MV4-11 lysate, log10 M -7): 0.9297; Kd (HDAC2; iL, MV4-11 lysate, read-out: Kd app): 14 µM; Kd (HDAC2; iL, MV411, read-out: pKdapp (converted)): 10 µM
